Results from EP0427405A1 (priority 1989, dated 1991).

Assays:
[1] = system: Phaffia rhodozyma ENZA-A169; assay type: cell-based
[2] = system: Phaffia rhodozyma ENZA-M10; assay type: cell-based

## CSC [DMS, dimethylsulphide]
[1]
  kill curve, kinetics of death: follows 1st order kinetics
  kill curve, speed of killing: killed much more quickly than E1
[2]
  kill curve, shape: definite "bump"
